Assays:
[1] = Storage stability of methanol/hexane extraction liquid, conventional pretreatment (FIG. 3); format: physicochemical; conditions: various storage temperatures (FIG. 3)
Protocol: In this case, since the measurement is influenced by a water-soluble antioxidation substance in the specimen, such as vitamin C and uric acid, etc., a pretreatment is performed for subjecting the specimen to an extraction treatment with methanol/hexane so as to distribute the water-soluble antioxidation substance into a methanol phase and the coenzyme Q-10, etc., into a hexane phase.
It is therefore necessary to perform analysis immediately after the extraction of the specimen. […] Herein, each temperature indicates a storage temperature of the hexane extraction liquid in FIG. 3.

[2] = Storage stability of isopropyl alcohol extracted liquid from human blood plasma (FIG. 5); format: physicochemical; conditions: isopropyl alcohol extract of human blood plasma, stored at around 4° C., even after at least 11 hours
Protocol: 50 μl of human blood plasma as a specimen is sampled (S-1 in FIG. 4), 950 μl of isopropyl alcohol is added into it (S-2 in FIG. 4), and then they are mixed sufficiently. Subsequently, they are subjected to a centrifugal separator at a rotational speed of 12,000 rpm for 3 minutes and at a temperature of 4° C. Thus, coenzyme Q-10 and a 2-electron reduced form thereof are extracted from the specimen into an isopropyl alcohol phase (S-3 in FIG. 4).
When an extracted liquid into which the coenzyme Q-10, etc., has been extracted is stored at a temperature around 4° C. […] Thus, the alteration of a stored analytical sample can be prevented. Additionally, the longitudinal axis in regard to coenzyme Q-10 in FIG. 5(b) represents the ratio (molar-ratio) of the coenzyme Q-10 occupied in the total quantity of the coenzyme Q-10 and the 2-electron reduced form thereof.

Row | SMILES | stability / oxidation in the hexane extraction liquid after pretreatment until injection into HPLC [1] | oxidation of the 2-electron reduced form during storage of the extracted liquid [2]
1 | COC1=C(OC)C(=O)C(C/C=C(\C)CC/C=C(\C)CC/C=C(\C)CC/C=C(\C)CC/C=C(\C)CC/C=C(\C)CC/C=C(\C)CC/C=C(\C)CC/C=C(\C)CCC=C(C)C)=C(C)C1=O [coenzyme Q-10, 2,3-dimethoxy-5-methyl-6-polyprenyl-1,4-benzoquinone] | chemically unstable | –
2 | COc1c(O)c(C)c(C/C=C(\C)CC/C=C(\C)CC/C=C(\C)CC/C=C(\C)CC/C=C(\C)CC/C=C(\C)CC/C=C(\C)CC/C=C(\C)CC/C=C(\C)CCC=C(C)C)c(O)c1OC [2-electron reduced form of coenzyme Q-10] | oxidized at a substantial rate | rarely oxidized

Source: patent publication US7374901B2, “Method of analyzing coenzyme Q-10 and two-electron reduction product thereof and analysis system” (Shiseido Company Ltd., priority 2002, dated 2008)
